Test results reported in paper PMC5650409 (Oncotarget, 2017).

Assays:
[1] = test system: T3M4 tumor-bearing nude mice; test: In vivo biodistribution; settings: n = 5
Protocol: All animal experiments were performed in adherence with the Peking Union Medical College Hospital (PUMCH) guidelines for the use of laboratory animals and were approved by PUMCH Clinical Center Animal Care and Use Committee. […] Zhang from the Department of General Surgery, Peking Union Medical College Hospital) and SK-BR-3 breast cancer cells (kindly supplied by Prof. Wei Ge from Department of Immunology, Institute of Basic Medical Sciences), into the right shoulder of female athymic nude mice (Laboratory Animal Center of PUMCH). Tumor sizes were monitored with a vernier caliper. […] After 72 h, those tumor-bearing mice with a visible mass in left thigh muscle, were selected and used as models with aseptic inflammation. […] At 5 min, 30 min, 60 min and 120 min after injection, mice were sacrificed by humane euthanasia - cervical dislocation. Blood was obtained through the eyeball, and tissues and organs of interests (brain, heart, lung, liver, pancreas, kidney, spleen, intestine, muscle, stomach, bone and tumor) were then weighed and counted. All measurements were background-subtracted and decay-corrected to the time of killing and then averaged. Radioactivity values were calculated and presented as the percentage injected dose per gram (%ID/g) of tissue.

T3M4 tumor-bearing mice = test: Small-animal PET imaging of T3M4 xenografts (with aseptic inflammation, with and without β-D-lactose blocking); assay type: in vivo; settings: for tumor uptake (PET ROI-derived): T3M4 tumor, 60 min post-injection
Protocol: (§1) All animal experiments were performed in adherence with the Peking Union Medical College Hospital (PUMCH) guidelines for the use of laboratory animals and were approved by PUMCH Clinical Center Animal Care and Use Committee. The pancreatic cancer tumor-bearing models were generated by subcutaneous injection of 5 × 10^6 human T3M4 pancreatic cancer cells (kindly supplied by Prof. Taiping Zhang from the Department of General Surgery, Peking Union Medical College Hospital) and SK-BR-3 breast cancer cells (kindly supplied by Prof. Wei Ge from Department of Immunology, Institute of Basic Medical Sciences), into the right shoulder of female athymic nude mice (Laboratory Animal Center of PUMCH). Tumor sizes were monitored with a vernier caliper. When the tumor reached approximately 3-5 mm in diameter, T3M4 tumor-bearing mice were intramuscularly injected with 0.2 mL turpentine into the left hind leg muscle. After 72 h, those tumor-bearing mice with a visible mass in left thigh muscle, were selected and used as models with aseptic inflammation.
(§2) In vivo PET imaging was performed using a small-animal PET scanner Inveon (Siemens Medical systems, USA). […] Mice were anesthetized with isoflurane and placed on a heated pad (to provide the animal with warmth throughout the scanning). PET images were acquired at 30, 60, 90 and 120 min post-injection. After the acquisition, region of interests (ROIs), including tumor, muscle, brain and kidney were drawn over major organs on decay-corrected whole-body coronal images using Inveon Research Workplace 4.1 software. Radioactivity concentration of organs was obtained from the mean pixel values within the multiple ROI volume, and converted into MBq/mL using a conversion factor. Assuming the density of tissue was 1 g/cm^3, the ROIs were converted to MBq/g and then divided by the administered activity, to obtain an imaging ROI-derived %ID/g.

[2] = test system: SK-BR-3 tumor-bearing mice; test: Small-animal PET imaging of SK-BR-3 xenografts; assay type: in vivo
Protocol: as §1, §2

[3] = Octanol-water partition coefficient determination; assay type: physicochemical; settings: n-octanol / PBS pH 7.4
Protocol: After vortexing for 10 min, the tube was centrifuged (8000 rpm, 3 min) for layer separation. An aliquot of the aqueous and n-octanol layers was collected and measured by a γ-counter.

[4] = In vitro stability in fetal bovine serum; assay type: in vitro ADME; settings: 37 °C, 120 min
[5] = Protocol: Urine and blood samples were collected at 15 min post-injection and blood was centrifuged (8000 rpm, 10 min) to separate out the plasma. Urine and plasma samples were analyzed by radio-TLC, as above.
[6] = SK-BR-3 xenografts, 60 min post-injection
[7] = 15 min after intravenous injection, radio-TLC

OC[C@H]1O[C@@H](O[C@H]2[C@H](O)[C@@H](O)[C@H](OCC[18F])O[C@@H]2CO)[C@H](O)[C@@H](O)[C@H]1O [^18F-FEL, 1'-^18F-fluoroethyl-β-D-lactose]
Biodistribution, Blood ([1]; 5 min after injection): 9.58 ± 0.51 %ID/g | Biodistribution, Bone ([1]; 5 min after injection): 1.34 ± 0.23 %ID/g | Biodistribution, Brain ([1]; 5 min after injection): 0.67 ± 0.23 %ID/g | Biodistribution, Heart ([1]; 5 min after injection): 3.81 ± 0.62 %ID/g | Biodistribution, Intestine ([1]; 5 min after injection): 2.57 ± 0.30 %ID/g | Biodistribution, Kidney ([1]; 5 min after injection): 19.4 ± 4.76 %ID/g | Biodistribution, Liver ([1]; 5 min after injection): 2.12 ± 0.21 %ID/g | Biodistribution, Lung ([1]; 5 min after injection): 2.29 ± 0.35 %ID/g | Biodistribution, Muscle ([1]; 5 min after injection): 2.50 ± 0.15 %ID/g | Biodistribution, Pancreas ([1]; 5 min after injection): 2.90 ± 1.28 %ID/g | Biodistribution, Spleen ([1]; 5 min after injection): 1.89 ± 0.62 %ID/g | Biodistribution, Stomach ([1]; 5 min after injection): 3.60 ± 0.64 %ID/g | Biodistribution, Tumor ([1]; 5 min after injection): 6.67 ± 0.42 %ID/g | Biodistribution, Blood ([1]; 30 min after injection): 2.31 ± 0.67 %ID/g | Biodistribution, Bone ([1]; 30 min after injection): 0.60 ± 0.26 %ID/g | Biodistribution, Brain ([1]; 30 min after injection): 0.16 ± 0.04 %ID/g | Biodistribution, Heart ([1]; 30 min after injection): 0.88 ± 0.25 %ID/g | Biodistribution, Intestine ([1]; 30 min after injection): 0.94 ± 0.16 %ID/g | Biodistribution, Kidney ([1]; 30 min after injection): 9.59 ± 1.80 %ID/g | Biodistribution, Liver ([1]; 30 min after injection): 1.36 ± 0.07 %ID/g | Biodistribution, Lung ([1]; 30 min after injection): 1.91 ± 0.42 %ID/g | Biodistribution, Muscle ([1]; 30 min after injection): 0.91 ± 0.12 %ID/g | Biodistribution, Pancreas ([1]; 30 min after injection): 0.69 ± 0.33 %ID/g | Biodistribution, Spleen ([1]; 30 min after injection): 0.77 ± 0.19 %ID/g | Biodistribution, Stomach ([1]; 30 min after injection): 1.03 ± 0.33 %ID/g | Biodistribution, Tumor ([1]; 30 min after injection): 3.24 ± 0.11 %ID/g | Biodistribution, Blood ([1]; 60 min after injection): 0.87 ± 0.31 %ID/g | Biodistribution, Bone ([1]; 60 min after injection): 0.31 ± 0.02 %ID/g | Biodistribution, Brain ([1]; 60 min after injection): 0.10 ± 0.02 %ID/g | Biodistribution, Heart ([1]; 60 min after injection): 0.38 ± 0.10 %ID/g | Biodistribution, Intestine ([1]; 60 min after injection): 0.56 ± 0.35 %ID/g | Biodistribution, Kidney ([1]; 60 min after injection): 4.35 ± 1.53 %ID/g | Biodistribution, Liver ([1]; 60 min after injection): 0.83 ± 0.23 %ID/g | Biodistribution, Lung ([1]; 60 min after injection): 0.71 ± 0.37 %ID/g | Biodistribution, Muscle ([1]; 60 min after injection): 0.77 ± 0.30 %ID/g | Biodistribution, Pancreas ([1]; 60 min after injection): 0.63 ± 0.34 %ID/g | Biodistribution, Spleen ([1]; 60 min after injection): 0.56 ± 0.30 %ID/g | Biodistribution, Stomach ([1]; 60 min after injection): 0.82 ± 0.61 %ID/g | Biodistribution, Tumor ([1]; 60 min after injection): 1.03 ± 0.09 %ID/g | Biodistribution, Blood ([1]; 120 min after injection): 0.29 ± 0.12 %ID/g | Biodistribution, Bone ([1]; 120 min after injection): 0.12 ± 0.02 %ID/g | Biodistribution, Brain ([1]; 120 min after injection): 0.06 ± 0.03 %ID/g | Biodistribution, Heart ([1]; 120 min after injection): 0.20 ± 0.04 %ID/g | Biodistribution, Intestine ([1]; 120 min after injection): 0.20 ± 0.07 %ID/g | Biodistribution, Kidney ([1]; 120 min after injection): 2.08 ± 0.74 %ID/g | Biodistribution, Liver ([1]; 120 min after injection): 0.59 ± 0.09 %ID/g | Biodistribution, Lung ([1]; 120 min after injection): 0.38 ± 0.11 %ID/g | Biodistribution, Muscle ([1]; 120 min after injection): 0.15 ± 0.07 %ID/g | Biodistribution, Pancreas ([1]; 120 min after injection): 0.29 ± 0.07 %ID/g | Biodistribution, Spleen ([1]; 120 min after injection): 0.30 ± 0.17 %ID/g | Biodistribution, Stomach ([1]; 120 min after injection): 0.24 ± 0.17 %ID/g | Biodistribution, Tumor ([1]; 120 min after injection): 0.65 ± 0.12 %ID/g | accumulation in inflammatory tissue (T3M4 tumor-bearing mice; T3M4-inflammation mice, 60 min after injection, PET): non-accumulation in inflammatory tissue | tumor uptake (PET ROI-derived) (T3M4 tumor-bearing mice; co-injection of β-D-lactose (15 mg/kg)): 2.36 ± 0.11 %ID/g | tumor uptake (PET ROI-derived) (T3M4 tumor-bearing mice; no blocking): 10.7 ± 1.01 %ID/g | reduction of specific tumor accumulation in PET competition assay (T3M4 tumor-bearing mice; co-injection of β-D-lactose): approximately 80% | radioactivity uptake in SK-BR-3 tumor ([2]; SK-BR-3 breast tumor-bearing mice with no HIP/PAP expression, PET): low | uptake ratio of tumor-to-blood [2, 6]: 0.37 ± 0.01 | uptake ratio of tumor-to-liver [2, 6]: 0.54 ± 0.01 | uptake ratio of tumor-to-muscle [2, 6]: 1.37 ± 0.05 | log P [3]: −2.62 ± 0.12 | intact ^18F-FEL in fetal bovine serum [4]: greater than 95% | percentage of intact probe in plasma [5, 7]: no less than 94% | percentage of intact probe in urine [5, 7]: no less than 94% | dehalogenation in vivo ([5]; plasma and urine 15 min after intravenous injection, supported by low bone uptake): Almost no dehalogenation was detected
